Data published in BindingDB's records for doi:10.1021/jm9012642 (Wyeth Research, 2009).

Molecular target: Serine/threonine-protein kinase mTOR (Homo sapiens, UniProt P42345)
Assay: mTOR Kinase Assay
Conditions: 25 °C

Oc1cccc(-c2nc(N3CCOCC3)c3cnn(C4CCN(Cc5cccnc5)CC4)c3n2)c1 [JMC527081 Compound 5f] was tested. Which IC50 did it give?
Its IC50 is 47 nM.
